# How the values were obtained:
# [1] = Detection in blood after subcutaneous administration to a monkey; format: in vivo
# cGMP level in blood = cGMP level in blood after subcutaneous administration to a monkey; format: in vivo
# [2] = tested on: cGMP concentration in plasma; experiment: cGMP concentration in plasma of rats after intravenous injection (Test Example 3); format: in vivo; settings: rat, 100 nmol/kg i.v.
# Experimental: The duration time (the effect of persistently elevating cGMP in blood and the time for which a test substance was detectable in blood) of each modified peptide prepared in Example 2 in the blood of rats was examined by the following method:
# Before the administration and 15, 30, 60, 90, 120, 180, and 240 minutes after the administration, blood was sampled (200 μL/sampling) over time from the jugular vein. The blood samples were immediately left on ice.
# The collected blood samples were centrifuged at 5000 rpm at 4° C. for 5 minutes by use of a centrifuge (Sigma 4K15, rotor: Nr12130-H). The separated plasma samples were divided into two types (samples for PK measurement and for cGMP measurement) and stored at −80° C. until measurement.
# The cGMP concentration in plasma was measured using Amersham cGMP Enzyme Immunoassay Biotrak™ (EIA) System (dual range) according to the protocol attached thereto.
# [3] = Detection of test substance in rat plasma by LC-MS/MS (Test Example 3); format: in vivo; settings: 100 nmol/kg i.v.; for Maximum time of detection after administration: rat plasma, LC-MS/MS, time at which the test substance was finally detected
# How it was run: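 Reported as final detection time: LC-MS/MS measured test substance in rat plasma collected from the jugular vein at 15, 30, 60, 90, 120, 180 and 240 min post-dose. Sample prep used a labelled hANP internal standard, acidic solvent, and sequential 50K then 3K ultrafiltration, keeping the 3K retentate.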
# human GC-A = target: T1, human GC-A (Homo sapiens, UniProt P16066); experiment: cGMP elevating activity in CHO/human GC-A cells (Test Example 1); format: cell-based
# T1 construct: expressed in transfected cells; host or cells: CHO cells
# T1 sequence (P16066 33-1061): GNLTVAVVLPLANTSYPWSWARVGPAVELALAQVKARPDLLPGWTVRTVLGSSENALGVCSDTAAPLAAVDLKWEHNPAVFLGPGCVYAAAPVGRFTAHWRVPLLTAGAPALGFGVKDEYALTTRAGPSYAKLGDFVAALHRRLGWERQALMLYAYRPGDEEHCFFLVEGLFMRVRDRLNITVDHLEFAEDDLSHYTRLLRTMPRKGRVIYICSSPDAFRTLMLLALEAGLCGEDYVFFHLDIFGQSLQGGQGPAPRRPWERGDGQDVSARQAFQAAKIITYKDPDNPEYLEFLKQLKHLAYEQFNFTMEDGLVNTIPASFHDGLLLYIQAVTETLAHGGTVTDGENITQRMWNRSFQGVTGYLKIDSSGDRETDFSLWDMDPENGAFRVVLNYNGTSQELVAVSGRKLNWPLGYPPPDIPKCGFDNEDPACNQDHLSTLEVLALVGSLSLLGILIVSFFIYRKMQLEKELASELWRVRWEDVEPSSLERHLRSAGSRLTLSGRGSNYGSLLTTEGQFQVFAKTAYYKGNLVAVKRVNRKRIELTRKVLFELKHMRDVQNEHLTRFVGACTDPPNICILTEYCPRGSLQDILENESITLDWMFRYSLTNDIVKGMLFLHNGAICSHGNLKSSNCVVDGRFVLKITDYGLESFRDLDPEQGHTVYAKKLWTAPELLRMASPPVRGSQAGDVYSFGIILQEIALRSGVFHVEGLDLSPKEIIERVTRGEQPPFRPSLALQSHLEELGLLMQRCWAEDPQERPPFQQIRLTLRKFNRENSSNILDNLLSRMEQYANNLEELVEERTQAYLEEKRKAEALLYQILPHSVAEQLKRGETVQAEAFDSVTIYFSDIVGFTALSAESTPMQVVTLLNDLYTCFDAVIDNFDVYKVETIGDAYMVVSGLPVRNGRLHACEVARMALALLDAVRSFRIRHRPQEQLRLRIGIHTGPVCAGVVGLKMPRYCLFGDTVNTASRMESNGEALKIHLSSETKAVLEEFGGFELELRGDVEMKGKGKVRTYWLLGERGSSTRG
# How it was run: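 cGMP in lysates was read by HTRF after a 15 min peptide exposure of GC-A-expressing CHO cells in a CO2 incubator, following 10 min room-temperature preincubation with 1.6 mM IBMX in KRB. T/C values were normalised between solvent wells (0) and 1 nM ANP wells (1).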
SMILES,Detection in blood after administration [1],Elevation of the cGMP level in blood after administration (cGMP level in blood),AUC60-240 ([2]; plasma cGMP) [pmol·h/mL],"All values integrated AUC 0-240 ([2]; plasma cGMP, 0 to 240 minutes, Pre-value as baseline, points under baseline negative)","All values integrated AUC 60-240 ([2]; plasma cGMP, 60 to 240 minutes, Pre-value as baseline, points under baseline negative)","Pre-value and higher values integrated AUC 60-240 ([2]; plasma cGMP, 60 to 240 minutes, only points above baseline)",Elevation of cGMP in plasma at 60 minutes or later [2],cGMP level 30 minutes after the administration [2],Maximum time of detection after administration [3] [h],"Detection of test substance in plasma sample ([3]; rat, 15 minutes after the administration)",EC50 (human GC-A) [nM]
"CC[C@H](C)[C@@H]1NC(=O)[C@H](CCCNC(=N)N)NC(=O)[C@H](CC(=O)O)NC(=O)[C@H](CCSC)NC(=O)[C@H](CCCNC(=N)N)NC(=O)CNC(=O)CNC(=O)[C@H](Cc2ccccc2)NC(=O)[C@@H](NC(=O)[C@H](CO)NC(=O)[C@H](CO)NC(=O)[C@H](CCCNC(=N)N)NC(=O)[C@H](CCCNC(=N)N)NC(=O)[C@H](CC(C)C)NC(=O)[C@@H](N)CO)CSSC[C@@H](C(=O)N[C@@H](CC(N)=O)C(=O)N[C@@H](CO)C(=O)N[C@@H](Cc2ccccc2)C(=O)N[C@@H](CCCNC(=N)N)C(=O)N[C@@H](Cc2ccc(O)cc2)C(=O)O)NC(=O)CNC(=O)[C@H](CC(C)C)NC(=O)CNC(=O)[C@H](CO)NC(=O)[C@H](CCC(N)=O)NC(=O)[C@H](C)NC(=O)CNC1=O [Native hANP, hANP(1-28)]",no longer detected in blood 30 minutes after the administration,"returns, 60 minutes after the administration, to the same level as that before the administration",≤ 0,13.90 (pmol/ml)*h,−33.86 (pmol/ml)*h,0.00 (pmol/ml)*h,disappeared completely,a level close to that before the start of the administration,0,no longer detected,
"CC[C@H](C)[C@@H]1NC(=O)[C@H](CCCNC(=N)N)NC(=O)[C@H](CC(=O)O)NC(=O)[C@H](CCSC)NC(=O)[C@H](CCCNC(=N)N)NC(=O)CNC(=O)CNC(=O)[C@H](Cc2ccccc2)NC(=O)[C@@H](NC(=O)[C@H](CO)NC(=O)[C@H](CO)NC(=O)[C@H](CCCNC(=N)N)NC(=O)[C@H](CCCNC(=N)N)NC(=O)[C@H](CC(C)C)NC(=O)[C@H](CO)NC(=O)[C@@H](N)CC(=O)N[C@@H]2O[C@H](CO)[C@@H](O[C@@H]3O[C@H](CO)[C@@H](O[C@@H]4O[C@H](CO[C@H]5O[C@H](CO)[C@@H](O)[C@H](O)[C@@H]5O[C@@H]5O[C@H](CO)[C@@H](O[C@@H]6O[C@H](CO[C@]7(C(=O)O)C[C@H](O)[C@@H](NC(C)=O)[C@H]([C@H](O)[C@H](O)CO)O7)[C@H](O)[C@H](O)[C@H]6O)[C@H](O)[C@H]5NC(C)=O)[C@@H](O)[C@H](O[C@H]5O[C@H](CO)[C@@H](O)[C@H](O)[C@@H]5O[C@@H]5O[C@H](CO)[C@@H](O[C@@H]6O[C@H](CO[C@]7(C(=O)O)C[C@H](O)[C@@H](NC(C)=O)[C@H]([C@H](O)[C@H](O)CO)O7)[C@H](O)[C@H](O)[C@H]6O)[C@H](O)[C@H]5NC(C)=O)[C@@H]4O)[C@H](O)[C@H]3NC(C)=O)[C@H](O)[C@H]2NC(C)=O)CSSC[C@@H](C(=O)N[C@@H](CC(N)=O)C(=O)N[C@@H](CO)C(=O)N[C@@H](Cc2ccccc2)C(=O)N[C@@H](CCCNC(=N)N)C(=O)N[C@@H](Cc2ccc(O)cc2)C(=O)O)NC(=O)CNC(=O)[C@H](CC(C)C)NC(=O)CNC(=O)[C@H](CO)NC(=O)[C@H](CCC(N)=O)NC(=O)[C@H](C)NC(=O)CNC1=O [Compound 2-3, (SG-)Asn-hANP(1-28)]",,,,,,,,,2,,0.12
"CC[C@H](C)[C@@H]1NC(=O)[C@H](CCCNC(=N)N)NC(=O)[C@H](CC(=O)O)NC(=O)[C@H](CCSC)NC(=O)[C@H](CCCNC(=N)N)NC(=O)CNC(=O)CNC(=O)[C@H](Cc2ccccc2)NC(=O)[C@@H](NC(=O)[C@H](CO)NC(=O)[C@H](CO)NC(=O)[C@H](CCCNC(=N)N)NC(=O)[C@H](CCCNC(=N)N)NC(=O)[C@H](CC(C)C)NC(=O)[C@H](CO)NC(=O)CCSCC(=O)NCCO[C@@H]2O[C@H](CO)[C@@H](O[C@@H]3O[C@H](CO)[C@@H](O[C@@H]4O[C@H](CO[C@H]5O[C@H](CO)[C@@H](O)[C@H](O)[C@@H]5O[C@@H]5O[C@H](CO)[C@@H](O[C@@H]6O[C@H](CO[C@]7(C(=O)O)C[C@H](O)[C@@H](NC(C)=O)[C@H]([C@H](O)[C@H](O)CO)O7)[C@H](O)[C@H](O)[C@H]6O)[C@H](O)[C@H]5NC(C)=O)[C@@H](O)[C@H](O[C@H]5O[C@H](CO)[C@@H](O)[C@H](O)[C@@H]5O[C@@H]5O[C@H](CO)[C@@H](O[C@@H]6O[C@H](CO[C@]7(C(=O)O)C[C@H](O)[C@@H](NC(C)=O)[C@H]([C@H](O)[C@H](O)CO)O7)[C@H](O)[C@H](O)[C@H]6O)[C@H](O)[C@H]5NC(C)=O)[C@@H]4O)[C@H](O)[C@H]3NC(C)=O)[C@H](O)[C@H]2NC(C)=O)CSSC[C@@H](C(=O)N[C@@H](CC(N)=O)C(=O)N[C@@H](CO)C(=O)N[C@@H](Cc2ccccc2)C(=O)N[C@@H](CCCNC(=N)N)C(=O)N[C@@H](Cc2ccc(O)cc2)C(=O)O)NC(=O)CNC(=O)[C@H](CC(C)C)NC(=O)CNC(=O)[C@H](CO)NC(=O)[C@H](CCC(N)=O)NC(=O)[C@H](C)NC(=O)CNC1=O [Compound 2-25, SG-thioacetamide-hANP(1-28)]",,,,,,,,,2,,0.054
